Measured values published in patent US20210063414A1, “METHODS FOR PREVENTING AND/OR TREATING BONE LOSS CONDITIONS BY MODULATING IRISIN” (Dana-Farber Cancer Institute, Inc., priority 2018, published 2021).
“Also recorded” adds a separate entry of the source. Where a name gives a salt, the structure may show the parent alone.

What was measured:
sclerostin = assay: Irisin injection in mice: sclerostin mRNA in osteocyte-enriched bones and plasma sclerostin protein (ELISA); type: in vivo; details: co-injection of 1 mg/kg inhibitor with irisin
Protocol: 8 weeks old mice were injected daily with indicated dose of irisin for 6 days. […] were collected and treated with collagenase to yield osteocyte-enriched bones. Sclerostin mRNA level from osteocyte-enriched tibia was analyzed by qPCR (FIG. 7A). Cyclophilin was used as a house-keeping gene. Plasma was collected to analyze the circulating sclerostin protein level by ELISA assay (FIG. 7B). Data are represented as mean±SEM. For FIG. 7A and FIG. 7B, n=5 animals/group. * indicates p<0.05, and *** indicates p<0.001.
Certain materials and methods were used to generate the results described herein. For example, the data shown in FIG. 1A resulted from MLO-Y4 (an osteocyte-like cell line) cells treated with the indicated concentration of irisin and hydrogen peroxide for 4 hours. Cells were stained with Hoechst 33342 (ThermoFisher Scientific, catalog number H3570) and Eth-D1 (ThermoFisher Scientific, catalog number E1169) and analyzed to determine the percentage of cell death using ImageJ. […] Co-precipitated irisin was analyzed by immunoblot analysis against flag tag (Sigma Aldrich, catalog number A8592). The data shown in FIGS. 5A and 5B were generated from MLO-Y4 cells treated and analyzed as in the experiments used to generate the data shown in FIG. 2D, except that pre-treatment of 100 nM RGDS (FIG. 5A) or echistatin (R & D Systems Inc., catalog number 3202/100U) (FIG. 5B) for 10 minutes was performed before irisin treatment. […] RNAs were extracted from the cells and the sclerostin mRNA level was analyzed by qPCR (FIG. 6A) or treated and analyzed as in (FIG. 6A), except that pre-treatment of 10 μM RGDS, RGDyK (Selleck, catalog number S7844), or echistatin was performed for 10 minutes before irisin treatment. […] Sclerostin mRNA level was analyzed by qPCR (FIG. 7A). […] Epididymal fats were collected, RNAs were extracted from the tissues, and mRNA levels of the indicated genes were analyzed by qPCR. […]

MLO-Y4 cells = assay: Integrin-like signaling (pFAK, pZyxin, pAKT, pCREB) in MLO-Y4 cells, immunoblot; type: cell-based; details: for effect of integrin inhibitor on irisin-induced signaling (phosphorylation of FAK, Zyxin, CREB): MLO-Y4, inhibitor pre-treatment 10 minutes before irisin
Protocol: Integrin heterodimer binds to its ligand. The interaction results in phosphorylation of FAK and Zyxin, followed by phosphorylation of AKT (at T308) and CREB. PM is plasma membrane. FIG. 2C and FIG. 2D show the immunoblots. MLO-Y4 cells were seeded and incubated until 60% cell density. The cells were incubated with serum free medium (FreeStyle™ 293 medium) for 4 hours and were treated for indicated time with 10 nM norepinephrine or irisin (FIG. 2C) or indicated concentrations of irisin for 10 minutes (FIG. 2D). Cells were lysed to detect the indicated protein level using immunoblot analysis.
(§1) Certain materials and methods were used to generate the results described herein. For example, the data shown in FIG. 1A resulted from MLO-Y4 (an osteocyte-like cell line) cells treated with the indicated concentration of irisin and hydrogen peroxide for 4 hours. Cells were stained with Hoechst 33342 (ThermoFisher Scientific, catalog number H3570) and Eth-D1 (ThermoFisher Scientific, catalog number E1169) and analyzed to determine the percentage of cell death using ImageJ. The data shown in FIG. 2D resulted from MLO-Y4 incubated in serum free medium (FreeStyle™ 293 expression medium, ThermoFisher Scientific, catalog number 12338018) for 4 hours followed by treatment of indicated concentrations of irisin for 10 minutes. Cells were lysed to detect the indicated protein level using immunoblot analysis (Cell Signaling Technology, catalog numbers 3283S, 3285S, 8467S, 3553S, 9198S, and 9104S; Abcam, catalog number ab49900-100ul). The data shown in FIG. 3 resulted from 3T3-F442A cells incubated in serum free medium for 4 hours followed by treatment of indicated concentrations of irisin for 10 minutes. Cells were lysed by RIPA buffer to detect the indicated protein level using immunoblot analysis. The data shown in FIG. 4 were generated from 100 nM flag-tagged irisin (Enzo life sciences, catalog number ADI-908-307-3010) incubated with 5 nM of the indicated 6 his-tag integrins (R & D Systems Inc., catalog numbers 7064-AB-025, 5668-A4-050, 5438-A9-050, 6357-AB-050, and 6579-AV-025) in the presence of RGDS peptide (R & D Systems Inc., catalog number 3498/10) or its control peptide (Enzo Life Sciences, catalog Number BML-P701-0005) followed by immunoprecipitation using 6 his-tag beads (ThermoFisher Scientific, catalog number R901-01). Co-precipitated irisin was analyzed by immunoblot analysis against flag tag (Sigma Aldrich, catalog number A8592). The data shown in FIGS. 5A and 5B were generated from MLO-Y4 cells treated and analyzed as in the experiments used to generate the data shown in FIG. 2D, except that pre-treatment of 100 nM RGDS (FIG. 5A) or echistatin (R & D Systems Inc., catalog number 3202/100U) (FIG. 5B) for 10 minutes was performed before irisin treatment. The data shown in FIGS. 6A and 6B were generated from MLO-Y4 cells incubated in serum free medium for 3 hours followed by treatment of indicated time of 10 nM irisin for 16 hours. RNAs were extracted from the cells and the sclerostin mRNA level was analyzed by qPCR (FIG. 6A) or treated and analyzed as in (FIG. 6A), except that pre-treatment of 10 μM RGDS, RGDyK (Selleck, catalog number S7844), or echistatin was performed for 10 minutes before irisin treatment. The data shown in FIGS. 7A and 7B were generated from 8 week-old mice injected with the indicated dose of irisin for 6 days. Tibias were collected and treated with collagenase to obtain mRNA from the osteocyte-enriched bones. Sclerostin mRNA level was analyzed by qPCR (FIG. 7A). Serum was collected to analyze the sclerostin protein level using ELISA kit (R&D Systems Inc., catalog number MSST00) (FIG. 7B). The data shown in FIG. 8 were generated from 8 week-old mice injected with the indicated dose of irisin for 6 days. Epididymal fats were collected, RNAs were extracted from the tissues, and mRNA levels of the indicated genes were analyzed by qPCR. […]

[1] = tested on: sclerostin mRNA in MLO-Y4 cells; assay: Sclerostin mRNA in MLO-Y4 cells, qRT-PCR; type: cell-based, mouse; details: MLO-Y4, inhibitor pre-treatment 10 minutes, irisin 16 hours
Protocol: Cells were stained with Hoechst 33342 and Eth-D1, and analyzed to determine the percentage of cell death. *: p<0.05, ***: p<0.001 vs 0.3 mM H2O2 treated condition. […] MLO-Y4 cells were seeded and incubated until 60% cell density. The cells were incubated with Freestyle293 medium for 4 hours and were treated with indicated concentrations of irisin for 16 hours. Sclerostin mRNA level was analyzed by qRT-PCR. Cyclophilin was used as a control house-keeping gene.
MLO-Y4 cells were incubated in serum free medium for 3 hours followed by treatment of indicated concentrations of irisin for indicated time (FIG. 6A), or followed by treatment of 0 or 10 nM irisin in the presence of indicated integrin inhibitors or their control peptide for 16 hours (FIG. 6B). Sclerostin mRNA level was analyzed by qPCR.
as §1, with “The data shown in FIGS. 7A and 7B were generated from 8 week-old mice injected with the indicated dose of irisin for 6 days. Tibias were collected and treated with collagenase to obtain mRNA from the osteocyte-enriched bones.” left out, “7A).” for “7A). Serum was collected to analyze the sclerostin protein level using ELISA kit (R&D Systems Inc., catalog number MSST00) (FIG. 7B). The data shown in FIG. 8 were generated from 8 week-old mice injected with the indicated dose of irisin for 6 days. Epididymal fats were collected, RNAs were extracted from the tissues, and mRNA levels of the indicated genes were analyzed by qPCR.”

Molecule | effect on irisin-induced gene expression of sclerostin in osteocyte-enriched bones (sclerostin) | effect of integrin inhibitor on irisin-induced signaling (phosphorylation of FAK, Zyxin, CREB) (MLO-Y4 cells) | phosphorylation of CREB (positive control) (MLO-Y4 cells; MLO-Y4, 10 nM) | effect of integrin inhibitor on irisin-induced sclerostin mRNA [1] | effect of integrin inhibitor on irisin-induced signaling (phosphorylation of FAK, Zyxin, CREB) (MLO-Y4 cells; listed as Echistatin)
CNc1cccc(CCOc2ccc3c(c2)CN(CC(F)(F)F)C(=O)[C@H](CC(=O)O)C3)n1 [SB273005, reference compound] | significantly prevented | block irisin-induced signaling | – | – | –
NC[C@H](O)c1ccc(O)c(O)c1 [norepinephrine, L-(−)-Norephinephrine (+)-bitartrate salt monohyrdate] | – | – | also did this | – | –
echistatin: natural integrin inhibitor isolated from viper venom, affects primarily integrin αV complexes (QCESGPCCRNCKFLKEGTICKRARGDDMDDYCNGKTCDCPRNPHKGPAT) | – | most irisin signaling in osteocytes was inhibited | – | sensitive; also recorded: prevented sclerostin induction | effectively prevented irisin signaling
